Structures are written as SMILES.

One assay has as its system ring stage parasites. Kind of assay: Parasite growth potency assay, 72 hours, LDH readout. The settings on record: 72 h, parasite growth measured by LDH assay after 72 hours at 37° C.; 0.7% rings, 2% haematocrit; read-out: EC50. The class given is cell-based. Summed up:
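Parasite growth was quantified by LDH assay after a −80 °C freeze-thaw. Before that, compound was incubated for 72 h at 37 °C under humidified gas with ring-stage cultures adjusted to 0.7% parasitemia and 2% haematocrit in serum- and albumax-supplemented RPMI-Hepes.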
For `CC(C)[C@]1(C)CC(=O)N([C@H](c2cccnc2)c2cccc(C(=O)N[C@H]3CC(C)(C)Oc4ccccc43)c2)C(=N)N1` [Example 101A, [(4S)-1-[[3-[[(4S)-2,2-dimethylchroman-4-yl]carbamoyl]phenyl]-pyridin-1-ium-3-yl-methyl]-4-isopropyl-4-methyl-6-oxo-hexahydropyrimidin-2-ylidene]ammonium; 2,2,2-trifluoroacetate], the EC50 was determined as 0.3 nM.

Consider `CC(C)[C@]1(C)CC(=O)N([C@@H](c2cccnc2)c2cccc(C(=O)N[C@H]3CC(C)(C)Oc4ccccc43)c2)C(=N)N1` [Example 101B, [(4S)-1-[[3-[[(4S)-2,2-dimethylchroman-4-yl]carbamoyl]phenyl]-pyridin-1-ium-3-yl-methyl]-4-isopropyl-4-methyl-6-oxo-hexahydropyrimidin-2-ylidene]ammonium; 2,2,2-trifluoroacetate], for which the EC50 is 1.5 nM.

In the case of `CCC[C@H](c1cccc(C(=O)N[C@@H]2c3ccccc3C[C@H]2O)c1)N1C(=N)NC(CC)(CC)CC1=O` [Example 102, [4,4-diethyl-1-[(1R)-1-[3-[[(1R,2R)-2-hydroxyindan-1-yl]carbamoyl]phenyl]butyl]-6-oxo-hexahydropyrimidin-2-ylidene]ammonium; 2,2,2-trifluoroacetate], the concentration giving a half-maximal response (EC50) worked out at 0.5 nM.

Regarding `CCC1(CC)CC(=O)N([C@H](CCOC)c2cncc(C(=O)N[C@H]3CC(C)(C)Oc4ccccc43)c2)C(=N)N1` [Example 103, [1-[1-[5-I(4S)-2,2-dimethylchroman-4-yl]carbamoyl]pyridin-1-ium-3-yl]-3-methoxy-propyl]-4,4-diethyl-6-oxo-hexahydropyrimidin-2-ylidene]ammonium; 2,2,2-trifluoroacetate], the half-maximal effective concentration (EC50) was 0.5 nM.

`COCC[C@H](c1cncc(C(=O)N[C@H]2CC(C)(C)Oc3ccccc32)c1)N1C(=N)N[C@](C)(C(C)C)CC1=O` [Example 104, [(4S)-1-[1-[5-[[(4S)-2,2-dimethylchroman-4-yl]carbamoyl]pyridin-1-ium-3-yl]-3-methoxy-propyl]-4-isopropyl-4-methyl-6-oxo-hexahydropyrimidin-2-ylidene]ammonium; 2,2,2-trifluoroacetate]: the concentration for a half-maximal effect (EC50) is 0.9 nM.

Regarding `CCC1(CC)CC(=O)N(C(c2cncc(C(=O)N[C@H]3CC(C)(C)Oc4ccccc43)c2)c2cncs2)C(=N)N1` (stereo partly drawn) [Example 105A, [1-[[5-[[(4S)-2,2-dimethylchroman-4-yl]carbamoyl]pyridin-1-ium-3-yl]-thiazol-5-yl-methyl]-4,4-diethyl-6-oxo-hexahydropyrimidin-2-ylidene]ammonium; 2,2,2-trifluoroacetate], the EC50 was determined as 0.5 nM.

Take `CCC1(CC)CC(=O)N([C@H](c2cncc(F)c2)c2cccc(C(=O)N[C@H]3CCOc4ccccc43)c2)C(=N)N1` [Example 106A, [1-[[3-[[(4S)-chroman-4-yl]carbamoyl]phenyl]-(5-fluoropyridin-1-ium-3-yl)methyl]-4,4-diethyl-6-oxo-hexahydropyrimidin-2-ylidene]ammonium; 2,2,2-trifluoroacetate]: the concentration giving a half-maximal response (EC50) was found to be 0.5 nM.

In the case of `CCC1(CC)CC(=O)N([C@@H](c2cncc(F)c2)c2cccc(C(=O)N[C@H]3CCOc4ccccc43)c2)C(=N)N1` [Example 106B, [1-[[3-[[(4S)-chroman-4-yl]carbamoyl]phenyl]-(5-fluoropyridin-1-ium-3-yl)methyl]-4,4-diethyl-6-oxo-hexahydropyrimidin-2-ylidene]ammonium; 2,2,2-trifluoroacetate], the EC50 amounted to 3.1 nM.

Regarding `CCC1(CC)CC(=O)N([C@H](CCC#N)c2cccc(C(=O)N[C@H]3CC(C)(C)Oc4ccccc43)c2)C(=N)N1` [Example 107, [1-[3-cyano-1-[3-[[(4S)-2,2-dimethylchroman-4-yl]carbamoyl]phenyl]propyl]-4,4-diethyl-6-oxo-hexahydropyrimidin-2-ylidene]ammonium; 2,2,2-trifluoroacetate], the half-maximal effective concentration (EC50) stood at 0.2 nM.

As to `C#CCC[C@H](c1cccc(C(=O)N[C@H]2CC(C)(C)Oc3ccccc32)c1)N1C(=N)N[C@](C)(C(C)C)CC1=O` [Example 108A, [(4S)-1-[1-[3-[[(4S)-2,2-dimethylchroman-4-yl]carbamoyl]phenyl]pent-4-ynyl]-4-isopropyl-4-methyl-6-oxo-hexahydropyrimidin-2-ylidene]ammonium; 2,2,2-trifluoroacetate], the EC50 was 0.4 nM.

As for `C#CCC[C@@H](c1cccc(C(=O)N[C@H]2CC(C)(C)Oc3ccccc32)c1)N1C(=N)N[C@](C)(C(C)C)CC1=O` [Example 108B, [(4S)-1-[1-[3-[[(4S)-2,2-dimethylchroman-4-yl]carbamoyl]phenyl]pent-4-ynyl]-4-isopropyl-4-methyl-6-oxo-hexahydropyrimidin-2-ylidene]ammonium; 2,2,2-trifluoroacetate], the EC50 came to 23.6 nM.

Consider `CCC1(CC)CC(=O)N([C@H](c2cccnc2)c2cccc(C(=O)N[C@@H]3c4ccccc4C[C@H]3O)c2)C(=N)N1` [Example 109A, [4,4-diethyl-1-[[3-[[(1R,2R)-2-hydroxyindan-1-yl]carbamoyl]phenyl]-pyridin-1-ium-3-yl-methyl]-6-oxo-hexahydropyrimidin-2-ylidene]ammonium; 2,2,2-trifluoroacetate], for which the EC50 is 1.6 nM.

`CCC1(CC)CC(=O)N([C@@H](c2cccnc2)c2cccc(C(=O)N[C@@H]3c4ccccc4C[C@H]3O)c2)C(=N)N1` [Example 109B, [4,4-diethyl-1-[[3-[[(1R,2R)-2-hydroxyindan-1-yl]carbamoyl]phenyl]-pyridin-1-ium-3-yl-methyl]-6-oxo-hexahydropyrimidin-2-ylidene]ammonium; 2,2,2-trifluoroacetate]: the concentration for a half-maximal effect (EC50) amounted to 22.9 nM.

Regarding `CCC1(CC)CC(=O)N([C@H](c2cncnc2)c2cccc(C(=O)N[C@@H]3c4ccccc4C[C@H]3O)c2)C(=N)N1` [Example 110B, 3-[(4,4-diethyl-2-imino-6-oxo-hexahydropyrimidin-1-yl)-pyrimidin-5-yl-methyl]-N-[(1R,2R)-2-hydroxyindan-1-yl]benzamide], the EC50 is 8.3 nM.

As for `CC#CCC[C@H](c1cncc(C(=O)N[C@H]2CC(C)(C)Oc3ccccc32)c1)N1C(=N)NC(CC)(CC)CC1=O` [Example 111, [1-[1-[5-[[(4S)-2,2-dimethylchroman-4-yl]carbamoyl]pyridin-1-ium-3-yl]hex-4-ynyl]-4,4-diethyl-6-oxo-hexahydropyrimidin-2-ylidene]ammonium; 2,2,2-trifluoroacetate], the EC50 came out at 0.4 nM.

Turning to `CCC1(CC)CC(=O)N([C@H](COCCOC)c2cccc(C(=O)N[C@H]3CC(C)(C)Oc4ccccc43)c2)C(=N)N1` [Example 112A, [1-[1-[3-[[(4S)-2,2-dimethylchroman-4-6-oxo-hexahydropyrimidin-2-ylidene]ammonium; 2,2,2-trifluoroacetate], the EC50 stood at 0.3 nM.

Regarding `CCC1(CC)CC(=O)N(Cc2cccc(C(=O)NC3(C)CCOc4ccccc43)c2)C(=N)N1` (centres unmarked) [Example 113, 3-[(4,4-diethyl-2-imino-6-oxo-hexahydropyrimidin-1-yl)methyl]-N-(4-methylchroman-4-yl)benzamide], the EC50 was 96.1 nM.

On to `C#CCC[C@H](c1cncc(C(=O)N[C@H]2CC(C)(C)Oc3ccccc32)c1)N1C(=N)N[C@](C)(C(C)C)CC1=O` [Example 114A, [(4S)-1-[1-[5-[[(4S)-2,2-dimethylchroman-4-yl]carbamoyl]pyridin-1-ium-3-yl]pent-4-ynyl]-4-isopropyl-4-methyl-6-oxo-hexahydropyrimidin-2-ylidene]ammonium; 2,2,2-trifluoroacetate], for which the half-maximal effective concentration (EC50) was determined as 0.3 nM.

As for `C#CCC[C@@H](c1cncc(C(=O)N[C@H]2CC(C)(C)Oc3ccccc32)c1)N1C(=N)N[C@](C)(C(C)C)CC1=O` [Example 114B, [(4S)-1-[1-[5-[[(4S)-2,2-dimethylchroman-4-yl]carbamoyl]pyridin-1-ium-3-yl]pent-4-ynyl]-4-isopropyl-4-methyl-6-oxo-hexahydropyrimidin-2-ylidene]ammonium; 2,2,2-trifluoroacetate], the concentration giving a half-maximal response (EC50) was determined as 18.4 nM.

As to `CCC1(CC)CC(=O)N([C@H](c2ccc(S(C)(=O)=O)cc2)c2cccc(C(=O)N[C@H]3CC(C)(C)Oc4ccccc43)c2)C(=N)N1` [Example 115A, [1-[[3-[[(4S)-2,2-dimethylchroman-4-yl]carbamoyl]phenyl]-(4-methylsulfonylphenyl)methyl]-4,4-diethyl-6-oxo-hexahydropyrimidin-2-ylidene]ammonium; 2,2,2-trifluoroacetate], the concentration for a half-maximal effect (EC50) stood at 1 nM.

Consider `CCC1(CC)CC(=O)N([C@@H](c2ccc(S(C)(=O)=O)cc2)c2cccc(C(=O)N[C@H]3CC(C)(C)Oc4ccccc43)c2)C(=N)N1` [Example 115B, [1-[[3-[[(4S)-2,2-dimethylchroman-4-yl]carbamoyl]phenyl]-(4-methylsulfonylphenyl)methyl]-4,4-diethyl-6-oxo-hexahydropyrimidin-2-ylidene]ammonium; 2,2,2-trifluoroacetate], for which the EC50 is 4.4 nM.

The same assay, now with this note: parasite growth measured by LDH assay after 72 hours at 37° C.; 0.7% rings, 2% haematocrit; read-out: EC50.
Take `CCC1(CC)CC(=O)N(C(c2cncnc2)c2cccc(C(=O)N[C@@H]3c4ccccc4C[C@H]3O)c2)C(=N)N1` (stereo partly drawn) [Example 110A, 3-[(4,4,-diethyl-2-imino-6-oxo-hexahydropyrimidin-1-yl)-pyrimidin-5-yl-methyl]-N-[(1R,2R)-2-hydroxyindan-1-yl]benzamide]: the EC50 is 4 nM.

The assay is the same for the next values; noted with them: parasite growth measured by LDH assay after 72 hours at 37° C.; 0.7% rings, 2% haematocrit; trifluoroacetate; read-out: EC50.
On to `CCC1(CC)CC(=O)N(C(c2cncc(C(=O)N[C@H]3CC(C)(C)Oc4ccccc43)c2)c2cncs2)C(=N)N1` (stereo partly drawn) [Example 105B, [1-[[5-[[(4S)-2,2-dimethylchroman-4-yl]carbamoyl]pyridin-1-ium-3-yl]-thiazol-5-yl-methyl]-4,4-diethyl-6-oxo-hexahydropyrimidin-2-ylidene]ammonium; 2,2,2-trifluoroacetate], for which the EC50 came to 0.6 nM.
